# In patent publication US20220280514A1, “METHODS OF TREATING BILE ACID DIARRHEA” (THE REGENTS OF THE UNIVERSITY OF CALIFORNIA, priority 2019, published 2022):
# Columns and labels:
# CFTR [1] = target: T1, CFTR (Mus musculus, UniProt P26361); test: Short-circuit current measurement in mouse distal colon (ex vivo)
# T1 construct: a full-thickness fragment is mounted in a micro-Ussing chamber; from tissue; host or cells: CD1 mouse colon, full-thickness fragment
# Text: For intestinal short-circuit current measurement, CD1 mice are anesthetized with isoflurane. The colon is removed, washed with ice-cold Krebs buffer, opened along the mesenteric border, and a full-thickness fragment is mounted in a micro-Ussing chamber (area 0.7 cm^2, World Precision Instruments). Hemichambers are filled with oxygenated Krebs-bicarbonate solution.
# CFTR [2] = target: T1, CFTR; test: CDCA-induced fluid secretion in closed intestinal loops in mice; assay type: in vivo; conditions: for reduction in loop fluid accumulation: 5 mg/kg intraperitoneally 60 min before
# Experimental: CD1 mice (age 8-10 weeks) are given access to 5% dextrose water but not solid food for 24 h before experiments. Mice are administered (R)-BPO-27 (5 mg/kg) or vehicle (5% DMSO, 10% Kolliphor HS in saline) intraperitoneally 60 min before creation of closed intestinal (mid-jejunal or distal colonic) loops and injection of CDCA or PBS vehicle. […] See Cil, O., et al. (2017) Benzopyrimido-pyrrolo-oxazine-dione CFTR inhibitor (R)-BPO-27 for antisecretory therapy of diarrheas caused by bacterial enterotoxins. FASEB J 31, 751-760. For creation of loops, mice are anesthetized with isoflurane, and body temperature is maintained during surgery at 36-38° C. using a heating pad. A small abdominal incision is made to expose the intestine. For the mid-jejunal closed-loop model, 2-3 cm loops are created by sutures. Loops are injected with 100 μl PBS containing CDCA or PBS vehicle. The abdominal incision is closed with sutures, and mice are allowed to recover from anesthesia. In the colonic closed-loop model, mice are given an enema (500 μl of mineral oil) 12 hours before surgery to cleanse the colon of solids as previously reported (Haggie, P. M., et al. (2018) SLC26A3 inhibitor identified in small molecule screen blocks colonic fluid absorption and reduces constipation. JCI Insight 3, e121370) and a 1-2 cm closed loop is created by sutures. Intestinal loops are surgically removed at specified times, and loop length and weight is measured to quantify fluid secretion. In some experiments, CF mice (ΔF508 homozygous, age 8-10 weeks) are used.
# CFTR [3] = target: T2, CFTR (Rattus norvegicus, UniProt P34158); test: Rat model of bile acid diarrhea (mid-colonic CDCA infusion); assay type: in vivo
# T2 construct: from tissue; host or cells: Sprague-Dawley rats in vivo, colon
# Experimental: Female Sprague-Dawley rats (age 8-10 weeks) are administered 500 μl CDCA (10 mM in PBS) or PBS vehicle by a mid-colonic infusion using a flexible plastic tube (15 gauge, 78 mm length, Instech Laboratories, Plymouth Meeting, Pa.). Rats are intraperitoneally administered (R)-BPO-27 (10 mg/kg) (or vehicle control) 30 min before infusion. (R)-BPO-27 is dissolved in saline containing 5% DMSO and 10% Kolliphor HS. Following the infusion, rats are placed individually in metabolic cages and given free access to water and food. Stool samples are collected prior to infusion (for baseline stool water content) and over 4 hours after the infusion. Stools are weighed immediately when visualized to determine wet weight. To determine stool water content, the stool samples are dried at 70° C. for 24 hours and water content is calculated as (wet weight−dry weight)/wet weight.
# [4] = mice; 5 mg/kg intraperitoneally; cited from earlier work
# CFTR [5] = target: T3, CFTR (Homo sapiens, UniProt P13569); test: Short-circuit current measurements in T84 cells (bile acid-induced secretory current); assay type: cell-based; design: short-circuit current provides a direct measure of apical CFTR Cl^− current; host or cells: T84 cells; conditions: for block of the increase in short-circuit current following CDCA application: CDCA 0.75 mM both bathing solutions, inhibitor 10 μM; for prosecretory response (increase in short-circuit current) to bile acid: bile acid added to both apical and basolateral bathing solutions
# Experimental: T84 cells (ATCC CCL-248) are cultured in a 1:1 mixture of DMEM/Ham's F-12 medium supplemented with 10% FBS, 100 U/mL penicillin and 100 μg/mL streptomycin. Cells are grown on Snapwell inserts (Costar Corning, Horseheads, N.Y.) at 37° C. in 5% CO2/95% air and used 7-14 days after plating.
# T84 cells are mounted in Ussing chambers and bathed in symmetrical HCO3^−-buffered solution containing (in mM): 120 NaCl, 5 KCl, 1 MgCl2, 1 CaCl2), 10 D-glucose, 5 HEPES and 25 NaHCO3 (pH 7.4). The solutions are aerated with 95% O2/5% CO2 and maintained at 37° C. In one study, for measurement of apical Cl^− conductance, a basolateral to apical Cl^− gradient is applied in which the basolateral hemichamber contains (in mM): 120 NaCl, 1 MgCl2, 1 CaCl2, 10 D-glucose, 5 HEPES and 25 NaHCO3 (pH 7.4); in the apical solution 120 mM NaCl is replaced by 5 mM NaCl and 115 mM Na-gluconate, and the basolateral membrane is permeabilized with 250 µg/ml amphotericin B. Short-circuit current is measured using an EVC4000 multichannel voltage clamp (World Precision Instruments, Sarasota, Fla.).
# CFTR [6] = target: T3, CFTR; test: Short-circuit current in primary human colonoid monolayer cultures; assay type: cell-based; design: Human cultures are generated from isolated intestinal crypts embedded in Matrigel; endogenous in cells; host or cells: primary human colonoid monolayers from three subjects; conditions: human colonoid monolayers
# Text: Human colonoid cultures are generated from de-identified tissue samples (other than age and sex) obtained from endoscopic or surgical procedures from three different subjects. Human cultures are generated from isolated intestinal crypts embedded in Matrigel (Corning, Tewksbury, Mass.) in 24-well plates and cultured in the presence of Wnt3A, R-spondin-1 and Noggin containing undifferentiated media (UDM) as described in Zachos, N. C. et. al (2016) Human enteroids/colonoids and intestinal organoids functionally recapitulate normal intestinal physiology and pathophysiology. J Biol Chem 291, 3759-3766; In, J., et al. (2016) Enterohemorrhagic Escherichia coli reduce mucus and intermicrovillar bridges in human stem cell-derived colonoids. Cell Mol Gastroenterol Hepatol 2, 48-62. Matrigel cultures in UDM media are used for the propagation of colonoids. To generate monolayer cultures, colonoids are triturated in Cultrex Organoid Harvesting Solution (Trevigen, Gaithersburg, Md.), and the fragments are collected by centrifugation and resuspended in UDM. Colonoid fragments (100 μL) are seeded onto 0.4 μm pore polyester membrane 24-well cell culture inserts (Transwell; Corning, Tewksbury, Mass.) pre-coated with human collagen IV (34 μg/mL; Millipore Sigma). […] Under these conditions, cultures reach confluency in 7-14 days as monitored by transepithelial resistance. […]
# T84 cells = test: Intracellular Ca2+ measurement by Fluo-4 fluorescence in T84 cells; assay type: cell-based; conditions: CDCA 0.75 or 1 mM, ATP or carbachol 100 μM, BAPTA-AM 30 μM pretreatment 30 min
# Experimental: T84 cells are plated in 96-well black-walled microplates. Confluent cells are loaded with Fluo-4 NW (Invitrogen, Carlsbad, Calif.) at 72 h after plating. For Ca^2+ measurement Fluo-4 fluorescence is measured with a FluoStar fluorescence plate reader (BMG Lab Technologies, Durham, N.C.) at excitation/emission wavelengths of 485/538 nm. In some studies cells are pretreated for 30 min with BAPTA-AM. Ca^2+ measurement in human colonoid cultures is done in monolayers that are transduced with the fluorescent Ca^2+ sensor Adeno-GCsMP6s. For cAMP assay, T84 cells are grown in 24-well plates, treated for 30 min with CDCA and/or forskolin, lysed by repeating freeze/thaw, centrifuged to remove cell debris, and the supernatant is assayed for cAMP using the Parameter cAMP immunoassay kit according to the manufacturer's instructions (R&D Systems, Minneapolis, […].).
# [7] = closed mid-jejunal loops, CDCA 10 mM
# T3 sequence (P13569 whole entry): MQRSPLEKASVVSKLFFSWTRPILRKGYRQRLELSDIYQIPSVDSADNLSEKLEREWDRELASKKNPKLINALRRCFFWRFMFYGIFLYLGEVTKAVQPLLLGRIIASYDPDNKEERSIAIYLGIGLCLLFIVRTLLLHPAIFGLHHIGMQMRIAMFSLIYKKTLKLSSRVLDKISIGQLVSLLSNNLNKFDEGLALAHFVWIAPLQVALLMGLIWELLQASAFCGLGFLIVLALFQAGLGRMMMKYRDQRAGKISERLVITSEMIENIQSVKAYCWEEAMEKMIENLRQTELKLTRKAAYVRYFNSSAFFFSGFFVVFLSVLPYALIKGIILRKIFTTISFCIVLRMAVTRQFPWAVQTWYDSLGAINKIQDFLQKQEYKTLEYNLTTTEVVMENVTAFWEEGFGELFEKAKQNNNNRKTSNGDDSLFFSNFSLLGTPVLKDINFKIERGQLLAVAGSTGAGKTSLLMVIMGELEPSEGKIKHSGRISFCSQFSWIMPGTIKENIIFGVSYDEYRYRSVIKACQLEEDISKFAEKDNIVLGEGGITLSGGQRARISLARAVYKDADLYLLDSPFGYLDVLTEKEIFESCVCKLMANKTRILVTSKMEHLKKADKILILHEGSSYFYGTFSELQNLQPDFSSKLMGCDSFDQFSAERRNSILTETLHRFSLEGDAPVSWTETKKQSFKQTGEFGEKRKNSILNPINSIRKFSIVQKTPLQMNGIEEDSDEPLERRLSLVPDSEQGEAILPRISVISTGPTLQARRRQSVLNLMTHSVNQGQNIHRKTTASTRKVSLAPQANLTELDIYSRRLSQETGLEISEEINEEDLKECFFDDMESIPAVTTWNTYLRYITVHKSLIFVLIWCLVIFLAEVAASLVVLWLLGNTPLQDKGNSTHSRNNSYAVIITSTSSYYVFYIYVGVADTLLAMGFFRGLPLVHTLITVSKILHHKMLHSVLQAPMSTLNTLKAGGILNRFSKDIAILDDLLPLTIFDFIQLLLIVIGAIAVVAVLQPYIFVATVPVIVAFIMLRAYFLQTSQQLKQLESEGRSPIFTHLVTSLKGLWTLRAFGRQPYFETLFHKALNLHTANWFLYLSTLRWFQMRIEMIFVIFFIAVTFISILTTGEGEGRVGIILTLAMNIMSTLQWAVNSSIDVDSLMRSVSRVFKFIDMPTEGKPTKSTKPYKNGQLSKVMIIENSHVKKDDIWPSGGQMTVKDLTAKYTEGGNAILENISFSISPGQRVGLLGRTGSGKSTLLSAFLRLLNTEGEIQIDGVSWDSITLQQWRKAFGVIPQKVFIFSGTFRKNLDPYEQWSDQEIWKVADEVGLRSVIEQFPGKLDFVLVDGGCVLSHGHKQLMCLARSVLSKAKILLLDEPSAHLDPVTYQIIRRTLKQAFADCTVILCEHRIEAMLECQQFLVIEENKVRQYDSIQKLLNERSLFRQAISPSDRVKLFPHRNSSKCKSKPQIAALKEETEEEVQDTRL
# T2 sequence (P34158 whole entry, the tested form may be a part): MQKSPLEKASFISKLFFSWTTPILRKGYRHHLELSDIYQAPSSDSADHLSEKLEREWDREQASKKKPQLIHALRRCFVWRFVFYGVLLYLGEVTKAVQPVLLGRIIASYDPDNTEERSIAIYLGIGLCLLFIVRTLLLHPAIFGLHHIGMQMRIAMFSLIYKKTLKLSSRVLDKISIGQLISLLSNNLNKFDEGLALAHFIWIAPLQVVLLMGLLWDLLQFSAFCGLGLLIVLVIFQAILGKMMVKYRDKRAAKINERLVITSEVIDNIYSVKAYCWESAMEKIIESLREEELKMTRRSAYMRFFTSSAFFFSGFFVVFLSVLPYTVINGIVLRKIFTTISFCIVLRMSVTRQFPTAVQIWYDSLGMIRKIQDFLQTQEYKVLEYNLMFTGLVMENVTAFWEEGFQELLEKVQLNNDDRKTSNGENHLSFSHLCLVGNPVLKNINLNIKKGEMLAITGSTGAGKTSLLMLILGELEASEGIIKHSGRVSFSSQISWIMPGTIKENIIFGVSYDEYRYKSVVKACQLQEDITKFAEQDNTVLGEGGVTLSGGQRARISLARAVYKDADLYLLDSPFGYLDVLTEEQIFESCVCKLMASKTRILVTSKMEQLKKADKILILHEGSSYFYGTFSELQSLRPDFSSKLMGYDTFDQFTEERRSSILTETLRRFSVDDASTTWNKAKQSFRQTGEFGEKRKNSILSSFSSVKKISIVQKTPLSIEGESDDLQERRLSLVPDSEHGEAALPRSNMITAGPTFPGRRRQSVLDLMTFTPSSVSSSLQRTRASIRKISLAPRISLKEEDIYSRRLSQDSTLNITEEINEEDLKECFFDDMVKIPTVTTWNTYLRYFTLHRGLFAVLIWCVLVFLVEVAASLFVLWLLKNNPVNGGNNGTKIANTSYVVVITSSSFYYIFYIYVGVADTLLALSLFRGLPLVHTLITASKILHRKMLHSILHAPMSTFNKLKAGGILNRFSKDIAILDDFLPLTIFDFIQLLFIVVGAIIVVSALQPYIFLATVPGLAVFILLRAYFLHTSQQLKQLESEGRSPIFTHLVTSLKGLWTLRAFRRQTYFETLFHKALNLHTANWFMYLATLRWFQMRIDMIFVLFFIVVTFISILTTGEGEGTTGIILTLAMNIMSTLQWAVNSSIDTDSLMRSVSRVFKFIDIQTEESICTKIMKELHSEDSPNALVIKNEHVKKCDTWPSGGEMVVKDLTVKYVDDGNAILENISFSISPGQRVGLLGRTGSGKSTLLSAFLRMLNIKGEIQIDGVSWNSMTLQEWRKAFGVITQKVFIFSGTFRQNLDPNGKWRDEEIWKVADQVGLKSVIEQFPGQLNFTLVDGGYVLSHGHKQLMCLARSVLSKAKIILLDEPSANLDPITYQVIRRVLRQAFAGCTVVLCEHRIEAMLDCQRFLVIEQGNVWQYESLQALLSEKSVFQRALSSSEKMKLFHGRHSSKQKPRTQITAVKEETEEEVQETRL
# T1 sequence (P26361 whole entry, the tested form may be a part): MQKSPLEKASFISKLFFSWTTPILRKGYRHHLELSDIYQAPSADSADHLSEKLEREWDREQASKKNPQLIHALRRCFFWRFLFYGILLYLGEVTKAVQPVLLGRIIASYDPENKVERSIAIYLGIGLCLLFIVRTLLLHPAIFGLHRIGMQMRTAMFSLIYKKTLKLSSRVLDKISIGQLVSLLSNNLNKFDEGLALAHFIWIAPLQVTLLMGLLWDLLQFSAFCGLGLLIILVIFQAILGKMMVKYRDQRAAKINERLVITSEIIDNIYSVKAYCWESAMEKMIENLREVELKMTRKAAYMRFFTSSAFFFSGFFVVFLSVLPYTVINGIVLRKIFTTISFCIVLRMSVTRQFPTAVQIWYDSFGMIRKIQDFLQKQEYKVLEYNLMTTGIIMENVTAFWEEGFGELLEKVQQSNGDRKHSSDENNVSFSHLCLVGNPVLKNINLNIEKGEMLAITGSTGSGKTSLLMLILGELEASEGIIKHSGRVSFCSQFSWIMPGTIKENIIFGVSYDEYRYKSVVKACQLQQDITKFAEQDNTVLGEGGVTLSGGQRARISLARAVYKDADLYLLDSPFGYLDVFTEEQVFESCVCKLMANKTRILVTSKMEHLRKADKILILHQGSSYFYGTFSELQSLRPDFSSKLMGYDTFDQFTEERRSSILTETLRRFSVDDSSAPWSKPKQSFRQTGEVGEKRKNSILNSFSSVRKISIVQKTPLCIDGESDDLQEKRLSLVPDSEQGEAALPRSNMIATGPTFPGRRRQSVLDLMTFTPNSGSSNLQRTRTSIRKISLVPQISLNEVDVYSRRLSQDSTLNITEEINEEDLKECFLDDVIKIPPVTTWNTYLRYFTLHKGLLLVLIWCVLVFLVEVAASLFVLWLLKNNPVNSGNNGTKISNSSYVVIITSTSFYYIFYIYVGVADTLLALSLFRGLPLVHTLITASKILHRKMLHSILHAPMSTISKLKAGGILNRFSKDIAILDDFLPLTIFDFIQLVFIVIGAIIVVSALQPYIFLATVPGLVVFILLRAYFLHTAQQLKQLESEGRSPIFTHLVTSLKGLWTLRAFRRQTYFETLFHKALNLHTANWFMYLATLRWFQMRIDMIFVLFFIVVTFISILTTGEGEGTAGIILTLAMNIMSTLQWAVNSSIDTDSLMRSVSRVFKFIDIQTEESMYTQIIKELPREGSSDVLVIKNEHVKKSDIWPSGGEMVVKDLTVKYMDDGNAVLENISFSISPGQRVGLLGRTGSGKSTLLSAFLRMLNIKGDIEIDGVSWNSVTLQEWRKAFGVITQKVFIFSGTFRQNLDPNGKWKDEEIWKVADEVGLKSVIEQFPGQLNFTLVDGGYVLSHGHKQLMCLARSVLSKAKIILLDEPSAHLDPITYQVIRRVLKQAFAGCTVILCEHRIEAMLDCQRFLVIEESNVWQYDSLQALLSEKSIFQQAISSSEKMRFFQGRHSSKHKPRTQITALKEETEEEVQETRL
smiles,measurement,setting,value
"Cn1c(=O)c2c(-c3ccccc3)n3c(c2n(C)c1=O)[C@H](c1ccc(Br)o1)Oc1ccc(C(=O)O)cc1-3 [(R)-BPO-27, 6-(5-Bromofuran-2-yl)-7,9-dimethyl-8,10-dioxo-11-phenyl-7,8,9,10-tetrahydro-6H-benzo[b]pyrimido [4′,5′:3,4]pyrrolo [1,2-d][1,4]oxazine-2-carboxylic acid]",change in short-circuit current after (R)-BPO-27,"CFTR [1]; after apical CDCA 1 mM, (R)-BPO-27 10 μM, mean±S.E.M., n=3",−5.2±1.7 μA/cm^2
same,reversal of CDCA-induced short-circuit current,"CFTR [1]; apical CDCA 1 mM, (R)-BPO-27 10 μM",fully reversed
same,reduction in loop fluid accumulation,"CFTR [2]; closed colonic loops, CDCA 2.5, 10 mM",~70%
same,reduction in loop fluid accumulation,CFTR [2]; [7],55%
same,effect on stool quantity or water content,"CFTR [3]; rats receiving mid-colonic infusion of PBS, 10 mg/kg intraperitoneally",does not affect
same,inhibition of the increase in stool water content,"CFTR [3]; rats, mid-colonic CDCA infusion 10 mM, 10 mg/kg intraperitoneally 30 min before, stool over 4 hours",~55%
same,serum levels,[4],therapeutic serum levels for several hours
same,block of the increase in short-circuit current following CDCA application,CFTR [5]; T84 cells,fully blocked
same,"block of secretory current produced by CDCA, DCA and their taurine conjugates","CFTR [5]; T84 cells, bile acids in apical and basolateral solutions, (R)-BPO-27 10 μM",blocked
same,IC50,"CFTR [5]; T84 cells, concentration-dependence studies, data not shown, read-out: IC50 for inhibition of CDCA-induced short-circuit current",< 1000 nM
same,block of increased current after CDCA followed by forskolin,"CFTR [5]; T84 cells, forskolin 10 μM, (R)-BPO-27 10 μM",fully blocked
same,inhibition of CDCA-activated apical CFTR Cl− current,"CFTR [5]; basolateral membrane-permeabilized T84 monolayers, Cl− gradient, apical CDCA 0.75 or 1 mM, (R)-BPO-27 10 μM",inhibition by (R)-BPO-27 is confirmed
same,reversal of CDCA-induced increase in short-circuit current,"CFTR [6]; apical CDCA, (R)-BPO-27 5 μM",reversed
"Cn1c(=O)c2c(-c3ccccc3)n3c(c2n(C)c1=O)[C@@H](c1ccc(Br)o1)Oc1ccc(C(=O)O)cc1-3 [(S)-BPO-27, 6-(5-Bromofuran-2-yl)-7,9-dimethyl-8,10-dioxo-11-phenyl-7,8,9,10-tetrahydro-6H-benzo[b]pyrimido [4′,5′:3,4]pyrrolo [1,2-d][1,4]oxazine-2-carboxylic acid, reference compound]",effect on loop fluid accumulation (in words),CFTR [2]; [7],no significant effect
"C[C@H](CCC(=O)O)[C@H]1CC[C@H]2[C@@H]3[C@H](O)C[C@@H]4C[C@H](O)CC[C@]4(C)[C@H]3CC[C@]12C [CDCA, chenodeoxycholic acid, reference compound]",increase in short-circuit current,"CFTR [1]; CDCA 1 mM added to apical bathing solution, mean±S.E.M., n=3",5.2±1.4 μA/cm^2
same,increase in short-circuit current (in words),CFTR [1]; CDCA added to basolateral bathing solution,No increase in short-circuit current
same,increase in stool water content,"CFTR [3]; rats, mid-colonic infusion of CDCA 10 mM, stool over 4 hours",~25%
same,prosecretory response (increase in short-circuit current) to bile acid,CFTR [5]; T84 cells,robust secretory current
"O=C(O)c1ccc(/C=C2\SC(=S)N(c3cccc(C(F)(F)F)c3)C2=O)cc1 [CFTRinh-172, 4-[[4-Oxo-2-thioxo-3-[3-(trifluoromethyl)phenyl]-5-thiazolidinylidene]methyl]benzoic acid, reference compound]",block of the increase in short-circuit current following CDCA application,CFTR [5]; T84 cells,fully blocked
"CC(=O)OCOC(=O)CN(CC(=O)OCOC(C)=O)c1ccccc1OCCOc1ccccc1N(CC(=O)OCOC(C)=O)CC(=O)OCOC(C)=O [BAPTA-AM, 1,2-Bis(2-aminophenoxy)ethane-N,N,N′,N′-tetraacetic acid tetrakis(acetoxymethyl ester), reference compound]",block of Ca2+ elevations,T84 cells,largely blocked
same,block of CDCA-induced increase in short-circuit current by pretreatment,"CFTR [5]; T84 cells, CDCA 1 mM, BAPTA-AM 30 μM pretreatment 25 min",largely blocked
same,reduction of CDCA-induced increase in short-circuit current by pretreatment,"CFTR [6]; CDCA 0.5 mM, BAPTA-AM 30 μM pretreatment 20 min",greatly reduced
"C[C@H](CCC(=O)O)[C@H]1CC[C@H]2[C@@H]3[C@H](O)C[C@@H]4C[C@H](O)CC[C@]4(C)[C@H]3C[C@H](O)[C@]12C [cholic acid, reference compound]",prosecretory response (increase in short-circuit current) to bile acid,CFTR [5]; T84 cells,No increase in short-circuit current
